# Laboratory results as given in patent US7485661B2, “Heterobicyclic pyrazole derivatives as kinase inhibitors” (Pfizer Italia S.r.l., priority 2005, dated 2009).
structure (smiles),measurement,value
"CCOC(=O)c1cc2[nH]nc(N)c2s1 [Compound 6, Ethyl 3-amino-1H-thieno[3,2-c]pyrazole-5-carboxylate]",melting point,231 to 233 °C
